Assay results taken from patent US20210290597A1, “METHOD OF TREATING A CONDITION ASSOCIATED WITH NEURODEGENERATION USING INHIBITORS OF OAT3” (Neuropore Therapies, Inc., priority 2018, published 2021).
Where two headings read alike, the source gives them in different places.

How the values were obtained:
[1] = test system: amyloid beta; assay: Amyloid beta staining (6E10), L41 APP transgenic mice; type: in vivo; settings: 5 mg/kg daily i.p.
Description: As described earlier, Line 41 transgenic mice express high levels of the mutant hAPP751 and develop mature plaques in the cortex, hippocampus, thalamus and olfactory region of mouse brain. The effects of Compound 1 on Amyloid beta plaque formation were assessed in both L41 APP transgenic and non-transgenic mice in a 1 month administration study. After 30 days, the mice were sacrificed, and immunofluorescence (IF) detection of amyloid beta were assessed in the harvested brain tissues.
The harvested brain tissues were drop fixed using 4% PFA and sectioned on a vibratome, and representative sections containing the neuropil of cortex, hippocampus and striatum were assessed for amyloid beta with standard IHC staining.
On approximately day 30, all subjects were euthanized within 2 hours of the last treatment and brain and other samples were collected. Brains were removed and divided sagitally. […]
Prepared slides were imaged at 40× using a high-resolution Hamamatsu Nanozoomer™ scanner located in the Microscopy Core in the UCSD Department of Neurosciences. Digital images were then transferred to Neuropore and analyzed using the Halo® imaging software package (Indica Labs, Corrales, N. Mex.). […] Images were evaluated for specimen and imaging problems and any issues were noted prior to unblinding of samples and statistical analyses.

[2] = molecular target: T1, human transporter OAT1 (Homo sapiens, UniProt Q4U2R8); assay: In vitro ion transport assay 1, OAT1-mediated uptake in MDCK-II cells; type: cell-based; settings: probe substrate 2 μM [3H]-p-aminohippurate
T1 construct: expressed in transfected cells; host or cells: MDCK-II
T1 sequence (Q4U2R8 1-563): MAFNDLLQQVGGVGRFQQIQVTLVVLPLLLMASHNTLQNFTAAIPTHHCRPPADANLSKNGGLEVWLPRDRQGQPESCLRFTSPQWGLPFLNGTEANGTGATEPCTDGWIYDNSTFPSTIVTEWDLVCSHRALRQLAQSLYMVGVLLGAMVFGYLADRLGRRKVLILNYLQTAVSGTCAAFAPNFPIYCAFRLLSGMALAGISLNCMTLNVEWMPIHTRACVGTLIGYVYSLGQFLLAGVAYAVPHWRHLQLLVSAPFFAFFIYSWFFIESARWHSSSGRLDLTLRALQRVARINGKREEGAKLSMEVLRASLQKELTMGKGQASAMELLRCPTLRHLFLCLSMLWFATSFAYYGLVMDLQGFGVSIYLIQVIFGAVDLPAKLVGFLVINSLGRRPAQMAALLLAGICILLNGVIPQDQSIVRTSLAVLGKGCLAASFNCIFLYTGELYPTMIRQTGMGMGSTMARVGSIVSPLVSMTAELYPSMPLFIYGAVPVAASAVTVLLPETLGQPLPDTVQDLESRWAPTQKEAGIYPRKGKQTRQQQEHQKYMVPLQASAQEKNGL
Description: To determine the effect of the ion transporter inhibitors on the uptake activity of solute carrier (SLC) ion transporter proteins such as OAT1 and OAT3, an ion transport assay utilizing a polarized monolayer of MDCK-II cells grown on permeable supports was used. The MDCK-II cells were treated to express the transporter of interest (e.g., OAT3 or OAT 1) or were treated with a control vector. 96-well culture plates with both donor and receiver cells containing a monolayer of MDCK-II cells were maintained at 37° C. in 5% CO2 atmosphere. Radio-labeled para-aminohippurate ([3H]-PAH) was used as a substrate for measuring OAT1 and OAT3 mediated transport, where the transport of the substrate was determined by radiometric detection. OAT1-mediated transport was assayed using 2 μM of [3H]-PAH; OAT3-mediated transport was assayed using 10 μM of [3H]-PAH. The probe substrate for OAT1 was 2 μM [3H]-p-aminohippurate. The probe substrate for OAT3 was 10 μM [3H]p-aminohippurate. The reference inhibitor for both assays was 100 μM probenecid. Following pre incubation of the transfected MDCK-II cells in HBSS, [3H]-PAH was added at the concentrations described above. Wells were then treated with either reference inhibitor probeneic acid or with the test compound. Cells transfected with empty vector served as an additional control. […]

[3] = molecular target: T2, human transporter OAT3 (Homo sapiens, UniProt Q8TCC7); assay: In vitro transport assay 2, OAT3; type: cell-based
T2 construct: expressed in transfected cells; host or cells: MDCK-II
T2 sequence (Q8TCC7 1-542): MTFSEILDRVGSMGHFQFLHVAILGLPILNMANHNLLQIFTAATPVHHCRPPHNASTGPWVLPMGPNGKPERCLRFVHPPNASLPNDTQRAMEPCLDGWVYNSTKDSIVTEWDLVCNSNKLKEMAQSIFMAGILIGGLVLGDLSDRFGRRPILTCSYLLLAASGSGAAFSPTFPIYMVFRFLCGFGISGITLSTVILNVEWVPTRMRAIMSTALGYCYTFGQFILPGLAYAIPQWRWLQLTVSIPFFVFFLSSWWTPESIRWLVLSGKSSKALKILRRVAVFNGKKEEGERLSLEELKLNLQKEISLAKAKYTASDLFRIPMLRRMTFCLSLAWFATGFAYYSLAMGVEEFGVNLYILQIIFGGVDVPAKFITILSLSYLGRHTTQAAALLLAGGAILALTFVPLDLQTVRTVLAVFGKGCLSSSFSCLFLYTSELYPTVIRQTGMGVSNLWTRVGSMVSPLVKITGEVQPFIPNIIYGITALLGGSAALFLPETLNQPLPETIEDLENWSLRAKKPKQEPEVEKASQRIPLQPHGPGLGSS
Description: Compound 1 was studied in the concentration range of 0.1-10 μM for its potency against transport mediated by various transporter proteins.

Which results are given for `O=S(=O)(c1ccc(-n2cn[nH]c2=S)cc1)c1ccc(Cl)c(C(F)(F)F)c1` [Compound 1, 4-(4-((4-chloro-3-(trifluoromethyl)phenyl)sulfonyl)phenyl)-2,4-dihydro-3H-1,2,4-triazole-3-thione]?
amyloid beta level vs vehicle-treated Line 41 mice [1]: reduces the amyloid beta level in a statistically significant manner; IC50 [2]: 12900 nM; IC50 ([3]; 100 nM [3H]-estrone-3-sulfate, read-out: IC50, OAT3 (Substrate: E3S)): 891 nM; IC50 ([3]; 10 μM [3H]-p-aminohippurate, read-out: IC50, OAT3 (Substrate: PAH)): 252 nM
